Values belong to the compound of their own block, whether it stands above or below them.
Assays:
Format in all cases: physicochemical
[1] = Drug content analysis via HPLC of extruded filaments and 3D printed tablets; conditions: percentage recovery of the active ingredient
Procedure: Filaments were prepared with the target concentration of components as detailed in Table III. 10 g of the dry ingredients (% weights according to Table III) was blended with 2 g of distilled non-ionised water (temporary plasticiser) using a mortar and pestle. The resulting blends were fed to a hot melt extruder at 90° C. and mixed at 100 rpm. A Thermo Scientific HAAKE MiniCTW hot melt extruder (Karlsruhe, Germany) was used to prepare the filaments. The filaments were dried for 1 hour at 100° C. in a drying and heating chamber (Binder Inc., series ED, Tuttinglen, Germany) and then used in 3D printing using the methodology described in Example 2 (i.e., nozzle temperature of 150° C.).
A HPLC method was developed and validated in order to assess the assay of the active substances in the extruded filaments and the 3D printed tablets. Each sample was accurately weighed (approximately 5 mg) and placed in a 1000 ml volumetric flask and dissolved in a mixture of water:acetonitrile:methanol (80:10:10). The solutions were then filtered through an Econofltr 0.2 μm syringe (Agilent Technologies Ltd., Cheadle, UK) and analysed by HPLC.
Lisinopril dihydrate, indapamide, rosuvastatin calcium and amlodipine content was assessed using Agilent UV-HPLC 1260 series (Agilent Technologies, Germany) equipped with a synergy max column (250×4.6 mm, 4 μm particle size), at temperature of 50° C. The analysis was carried out at 210 nm wavelength, flow rate 1 mL/min, injection volume was 100 μl and run time of 35 minutes. The mobile phase consisted of acetonitrile (A) and buffer pH3 (B) (which was prepared by adjustment of the pH of distilled water with phosphoric acid) according to the gradient in Table IV. Drug assay of the multi-layer polypill I (prepared from the uni-matrix) was assessed based on the assumption that each layer corresponds to an equal part of the tablet.

[2] = HPLC analysis of API content in filaments and 3D printed tablets after hot melt extrusion and FDM 3D printing; conditions: for Residual Percentage (potency of drug following HME): Filament; for Residual Percentage (potency of drug following HME and FDM 3D printing): Tablets
Procedure: Filaments containing individual drugs at different concentration were produced to achieve the individual target dose of each model drug. A Thermo Scientific HAAKE MiniCTW hot melt extruder (Karlsruhe, Germany) was used to prepare the filaments. Blank (drug-free) and individual drug loaded filaments were prepared by blending 10 g of dry ingredients (composition according to Table I) with additional 2 g of distilled water (temporary plasticiser) (Table 1) using mortar and pestle. This blend mixture was then fed to the hot melt extruder at 90° C. and mixed at 100 rpm, nozzle size of 1.5 mm. The filaments were extruded at the same temperature at 35 rpm. The extruded filaments were dried at 100° C. at 0% RH for 1 hour in a FD240 Binder heating chamber (Tuttlingen, Germany). For comparison purposes, a filament was also extruded without water at an extrusion temperature of 180° C. and a mixing rate of 100 rpm.
The tablets printed were designed using Autodesk® 3ds Max Design 2016 software version 18.0 (Autodesk, Inc., USA). The designs were then imported to the computer software in stereolithographic (STL) format. The extruded filaments were printed by a Makerbot 2×3D printer (Makerbot Industries, NY, USA) fitted with 0.4 mm nozzle and controlled by Simplify 3D software version 4.0 (Cincinnati, OH, USA). Printing took place using nozzle and building plate temperatures of 150 and 40° C. respectively. The tablets were printed following a concentric fill pattern and 100% infill with a layer thickness of 166 μm. For comparison reasons, tablets (without addition of water) were printed following the same settings as above but at nozzle temperature of 210° C.
The HPLC analysis was performed using Agilent 1260 series UV-HPLC (Agilent Technologies, Germany) equipped with a Synergi Polar column (250×4.6 mm, 4 μm particle size) (Phenomenex, Macclesfield, UK) at 35° C. The analysis was carried out at a detection wavelength of 254 nm, flow rate of 1 mL/min, injection volume of 100 μL and a 4 minute run time. The mobile phase consisted of a 1:1 mixture of solvent A (acetonitrile) and solvent B (water).
For theophylline, the same UV-HPLC system and column were used as detailed above for hydrocortisone. The mobile phase constituted of 10 mM solution of ammonium acetate buffer, methanol and acetonitrile (86:7:7). Analysis was carried out at a wavelength of 272 nm, temperature of 40° C., flow rate of 1 ml/min, injection volume of 5 μL and a run time of 7 min.
In order to examine the effect of hot melt extrusion (HME) and FDM 3D printing on the integrity of the active pharmaceutical ingredient (API), API-loaded filaments were analysed for API content post drying as well as in the 3D printed tablets. Samples (API loaded filaments or tablets) were accurately weighed and placed in 250 mL of 1:1 water:acetonitrile mixture for 2 hour under sonication. The solutions were filtered through 0.22 μm Millex-GP syringe filters (Merck Millipore, USA) and prepared for HPLC analysis.

[3] = HPLC analysis of hydrocortisone content in extruded filament and FDM 3D printed tablet at different drug loadings; conditions: for Drug potency in filament average ± SD (n = 3): Eudragit EPO filament, HME 90° C.; for Drug potency in FDM 3D printed average ± SD (n = 3): nozzle 135° C.
Procedure: Filaments were compounded according to the formulation in Table VIII using Thermo Fisher Haake MiniCTW compounder. The extruder speed was set at 35 rpm and temperature at 90° C.
Tablets were constructed with the pre-prepared filaments using a commercial FDM 3D printer equipped with 0.4 mm nozzle size. The templates used to print the tablets were designed in a caplet shape using Autodeski 3ds Maxi Design 2012 software version 14.0 (Autodesk, Inc., USA). The design was saved in a stereo-lithography (.stl) file format and was imported to the 3D software, MakerWare Version 3.9.1.1143 (Makerbot Industries, LLC., USA). Tablets were printed using modified settings of the software for PLA: as follows: type of printer: Replicator 2×; resolution: standard; speed of extruder 90 mm/s while extruding and 150 mm/s while traveling; infill: 100%; height of the layer: […]. No supports or rafts were utilized. The temperatures for the nozzle and build plate of the 3D printer were 135° C. and 60° C. respectively. Blue Scotch painter's tape was applied to the build platform to facilitate the adherence of the printed object during FDM 3D printing.
• Hydrocortisone content was assessed using HPLC using the following conditions: • Mobile phase: water:acetonitrile 1:1. • Stationary phase: Phenomenex® column Synergi Polar RP column with particle size 4 μm with 80 Å • pores, length of 250 mm • Column temperature: 35° C. • Injection Volume: 10 μL. • Flow rate: 1 mL/min • Detection: UV, 254 nm
The blend powder, the extruded filament or the printed tablet were placed into a 500 mL volumetric flask along with HCl. The flasks were sonicated for 30 minutes, followed by allowing the solutions to cool back to room temperature (approximately 30 minutes). A 10 mL syringe was filled with the resulting solution. A filter was added to the syringe; the first 5 mL was discarded, the second 5 mL used to fill a HPLC vial.

[4] = 3D printed at nozzle temperature 150° C., in %
[5] = HME 90° C., dried 1 hour at 100° C., in %
[6] = 3D printed at nozzle temperature 150° C.
[7] = HME 90° C., dried 1 hour at 100° C.
[8] = no temporary plasticiser, 180° C. for HME
[9] = temporary plasticiser (water), 90° C. for HME
[10] = no temporary plasticiser, 180° C. for HME followed by 210° C. for 3D-printing
[11] = temporary plasticiser, 90° C. for HME followed by 150° C. for 3D-printing

Drug contents in tablets, Rosuvastatin [1, 4]: 95.4 ± 2.37
Drug contents in filament, Rosuvastatin [1, 5]: 98.2 ± 1.09
Structure (SMILES): CC(C)c1nc(N(C)S(C)(=O)=O)nc(-c2ccc(F)cc2)c1/C=C/[C@@H](O)C[C@@H](O)CC(=O)[O-].CC(C)c1nc(N(C)S(C)(=O)=O)nc(-c2ccc(F)cc2)c1/C=C/[C@@H](O)C[C@@H](O)CC(=O)[O-].[Ca+2] [Rosuvastatin calcium, rosuvastatin calcium]

Drug contents in tablets, Lisinopril [1, 6]: 87.8 ± 1.5
Drug contents in filament, Lisinopril [1, 7]: 93.9 ± 1.66
Structure (SMILES): NCCCC[C@H](N[C@@H](CCc1ccccc1)C(=O)O)C(=O)N1CCC[C@H]1C(=O)O [Lisinopril dihydrate]

Residual Percentage (potency of drug following HME) [2, 8]: 100.61%
Residual Percentage (potency of drug following HME) [2, 9]: 100%
Residual Percentage (potency of drug following HME and FDM 3D printing) [2, 10]: 100.53%
Residual Percentage (potency of drug following HME and FDM 3D printing) [2, 11]: 100.2%
Structure (SMILES): Cn1c(=O)c2[nH]cnc2n(C)c1=O [Theophylline]

Residual Percentage (potency of drug following HME) [2, 8]: 19.98%
Residual Percentage (potency of drug following HME) ([2]; no temporary plasticiser, 180° C. for HME, listed as hydrocortisone): 20%
Residual Percentage (potency of drug following HME) [2, 9]: 100.9%
Residual Percentage (potency of drug following HME) ([2]; temporary plasticiser (water), 90° C. for HME, listed as hydrocortisone): 100%
Residual Percentage (potency of drug following HME and FDM 3D printing) [2, 10]: 3.02%
Residual Percentage (potency of drug following HME and FDM 3D printing) ([2]; no temporary plasticiser, 180° C. for HME followed by 210° C. for 3D-printing, listed as hydrocortisone): 3.02%
Residual Percentage (potency of drug following HME and FDM 3D printing) [2, 11]: 48.6%
Residual Percentage (potency of drug following HME and FDM 3D printing) ([2]; temporary plasticiser, 90° C. for HME followed by 150° C. for 3D-printing, listed as hydrocortisone): 48.6%
Drug potency in filament average ± SD (n = 3) ([3]; Drug Concentration 1%): 85.97 ± 0.14%
Drug potency in FDM 3D printed average ± SD (n = 3) ([3]; Drug Concentration 1%): 75.13 ± 0.62%
Drug potency in filament average ± SD (n = 3) ([3]; Drug Concentration 5%): 92.25 ± 0.21%
Drug potency in FDM 3D printed average ± SD (n = 3) ([3]; Drug Concentration 5%): 95.4 ± 4.3%
Drug potency in filament average ± SD (n = 3) ([3]; Drug Concentration 10%): 99 ± 0.34%
Drug potency in FDM 3D printed average ± SD (n = 3) ([3]; Drug Concentration 10%): 98.2 ± 0.45%
Structure (SMILES): C[C@]12CCC(=O)C=C1CC[C@@H]1[C@@H]2[C@@H](O)C[C@@]2(C)[C@H]1CC[C@]2(O)C(=O)CO [Hydrocortisone]

Drug contents in tablets, Amlodipine [1, 6]: 90.68 ± 2.28
Drug contents in filament, Amlodipine [1, 7]: 97.89 ± 1.94
Structure (SMILES): CCOC(=O)C1=C(COCCN)NC(C)=C(C(=O)OC)C1c1ccccc1Cl (centres unmarked) [Amlodipine besylate, amlodipine besylate]

Drug contents in tablets, Indapamide [1, 4]: 96.06 ± 2.06
Drug contents in filament, Indapamide [1, 5]: 93.32 ± 1.67
Structure (SMILES): CC1Cc2ccccc2N1NC(=O)c1ccc(Cl)c(S(N)(=O)=O)c1 (centres unmarked) [Indapamide, indapamide]

From patent US12318488B2, “Solid dosage form production” (University of Central Lancashire, priority 2018, dated 2025)
